According to US12012407B1, “Pyrazolo[1,5-a]pyrido[4,3-e]pyrimidine-3-carboxylic acids as CK2 inhibitors” (KING FAISAL UNIVERSITY, priority 2024, dated 2024):

Tests used:
MCF7 (breast) = assay: In vitro cytotoxic activity (MTT) assay, MCF7; format: cell-based; conditions: Homo sapiens; MCF7 (breast) cells, exposed for 96 hours; read-out: Cytotoxicity activity IC50 (50% inhibition of cell proliferation)
Procedure: (§1) Compounds 1-16 were screened for their in vitro cytotoxic activity utilizing a 3-(4,5-dimethyl-thiazol-2-yl)-2,5-diphenyltetrazolium bromide (MTT) assay against selected cancer human cell lines consisting of PC3 (prostate), HCT116 (colon), A375 (melanoma), H1299 (lung), MIAPaCa-2 (pancreas), HL60 (leukemia), MCF7 (breast), MDA-MB-231 (breast) (T. Mosmann, J. Immunol. Meth., 1983, 65, 55-63). The cells were cultured at 37° C. in RMPI1640 medium supplemented with 10% fetal bovine serum, 50 IU/mL penicillin, and 50 μg/mL streptomycin in a 5% CO2 incubator. All cells were sub-cultured 3 times/week by trypsinisation. Viable cells were seeded and allowed to adhere for 12 hours before a test drug was added in 96-well plates at an initial density of 1.0×10^5 cells/mL. Tumor cell lines were separately exposed to various concentrations of the tested compounds followed by incubation at a temperature of 37° C. during 96 hours inside a medium of fresh RMPI 1640. Cells were subsequently incubated at 37° C. using MTT at 0.5 mg/mL during 4 hours. After removal of supernatant, formazan crystals were dissolved in isopropanol and the optical density was measured at 570 nm. CX-4945 was used as a positive control.

PC3 (prostate) = assay: In vitro cytotoxic activity (MTT) assay, PC3; format: cell-based; conditions: Homo sapiens, Prostate cell; PC3 (prostate) cells, exposed for 96 hours; read-out: Cytotoxicity activity IC50 (50% inhibition of cell proliferation)
Procedure: as §1

HL60 (leukemia) = assay: In vitro cytotoxic activity (MTT) assay, HL60; format: cell-based; conditions: Homo sapiens, HL-60; HL60 (leukemia) cells, exposed for 96 hours; read-out: Cytotoxicity activity IC50 (50% inhibition of cell proliferation)
Procedure: as §1

MIAPaCa-2 (pancreas) = assay: In vitro cytotoxic activity (MTT) assay, MIAPaCa-2; format: cell-based; conditions: Homo sapiens, MIA PaCa-2; MIAPaCa-2 (pancreas) cells, exposed for 96 hours; read-out: Cytotoxicity activity IC50 (50% inhibition of cell proliferation)
Procedure: as §1

H1299 (lung) = assay: In vitro cytotoxic activity (MTT) assay, H1299; format: cell-based; conditions: Homo sapiens, NCI-H1299; H1299 (lung) cells, exposed for 96 hours; read-out: Cytotoxicity activity IC50 (50% inhibition of cell proliferation)
Procedure: as §1

HCT116 (colon) = assay: In vitro cytotoxic activity (MTT) assay, HCT116; format: cell-based; conditions: Homo sapiens, HCT-116; HCT116 (colon) cells, exposed for 96 hours; read-out: Cytotoxicity activity IC50 (50% inhibition of cell proliferation)
Procedure: as §1

[1] = target: T1, recombinant human CK2 (RRBB-holoenzyme) (Homo sapiens, UniProt P68400); assay: CK2 Kinase Assay (33P-ATP, filter plate); format: biochemical; conditions: final ATP concentration 15 μM, 10 min at 30° C., eight concentrations; read-out: protein kinase CK2 inhibition IC50
T1 construct: purchased Millipore
T1 sequence (P68400 whole entry): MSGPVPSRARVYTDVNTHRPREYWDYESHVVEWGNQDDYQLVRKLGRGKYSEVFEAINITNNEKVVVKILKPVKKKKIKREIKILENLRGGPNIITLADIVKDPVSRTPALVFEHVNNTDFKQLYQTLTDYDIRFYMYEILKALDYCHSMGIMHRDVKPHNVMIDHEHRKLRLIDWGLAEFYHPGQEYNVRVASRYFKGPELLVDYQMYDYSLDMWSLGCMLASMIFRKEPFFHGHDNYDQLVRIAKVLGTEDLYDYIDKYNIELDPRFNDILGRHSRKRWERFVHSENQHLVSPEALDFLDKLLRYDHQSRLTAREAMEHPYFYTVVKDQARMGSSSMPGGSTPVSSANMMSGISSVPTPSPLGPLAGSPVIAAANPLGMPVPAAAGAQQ
T1 sequence (P67870 whole entry partner): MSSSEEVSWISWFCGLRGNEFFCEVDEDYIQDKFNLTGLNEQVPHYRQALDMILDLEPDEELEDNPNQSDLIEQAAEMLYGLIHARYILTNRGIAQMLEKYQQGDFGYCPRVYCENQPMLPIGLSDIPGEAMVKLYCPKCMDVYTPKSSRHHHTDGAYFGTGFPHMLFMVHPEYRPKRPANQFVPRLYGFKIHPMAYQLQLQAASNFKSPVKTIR
Procedure: CK2 Kinase Assay was conducted using the protocol as described in Pierre F. et al; J. Med. Chem. 2011, 54, 635-654. The tested compounds in aqueous solution were added at a volume of 10 μL to a reaction mixture comprising 10 μL of assay dilution buffer (ADB; 20 mM MOPS, pH 7.2, 25 mM β-glycerol phosphate, 5 mM EGTA, 1 mM sodium orthovanadate, and 1 mM dithiothreitol), 10 μL of substrate peptide (RRRDDDSDDD, dissolved in ADB at a concentration of 1 mM), 10 μL of recombinant human CK2 (RRBB-holoenzyme, 25 ng dissolved in ADB; Millipore). Reactions were initiated by the addition of 10 μL of ATP solution (90% 75 mMMgCl2, 75 μM ATP (final ATP concentration: 15 μM) dissolved in ADB; 10% [Y-33P] ATP (stock 1 mCi/100 μL; 3000 Ci/mmol (Perkin-Elmer) and maintained for 10 min at 30° C. The reactions were quenched with 100 μL of 0.75% phosphoric acid and then transferred to and filtered through a phosphor cellulose filter plate (Millipore). After washing each well five times with 0.75% phosphoric acid, the plate was dried under vacuum for 5 min and, following the addition of 15 μL of scintillation fluid to each well, the residual radioactivity was measured using a Wallac luminescence counter. The IC50 values were derived from eight concentrations of test inhibitors.

MDA-MB-231 (breast) = assay: In vitro cytotoxic activity (MTT) assay, MDA-MB-231; format: cell-based; conditions: Homo sapiens; MDA-MB-231 (breast) cells, exposed for 96 hours; read-out: Cytotoxicity activity IC50 (50% inhibition of cell proliferation)
Procedure: as §1

A375 (melanoma) = assay: In vitro cytotoxic activity (MTT) assay, A375; format: cell-based; conditions: Homo sapiens, A-375; A375 (melanoma) cells, exposed for 96 hours; read-out: Cytotoxicity activity IC50 (50% inhibition of cell proliferation)
Procedure: as §1

O=C(O)c1cnn2c1nc(Nc1cccc(Cl)c1)c1ccncc12 [Compound 1, 5-((3-chlorophenyl)amino)pyrazolo[1,5-a]pyrido[4,3-e]pyrimidine-3-carboxylic acid]
IC50 (MCF7 (breast)): 5.2 µM
IC50 (PC3 (prostate)): 2.1 µM
IC50 (HL60 (leukemia)): 3.9 µM
IC50 (MIAPaCa-2 (pancreas)): 1.1 µM
IC50 (H1299 (lung)): 1.6 µM
IC50 (HCT116 (colon)): 1.9 µM
IC50 [1]: 0.096 µM
IC50 (MDA-MB-231 (breast)): 4.4 µM
IC50 (A375 (melanoma)): 4.3 µM
